According to US20110195900A1, “PEPTIDIC PTH RECEPTOR AGONISTS” (FERRING B.V., priority 2008, published 2011):
Non-standard residues stand in square brackets, D forms with d. Residues, ends and D or L forms follow the SMILES beside them. 1Nal = N[C@@H](Cc1cccc2ccccc12)C(=O)O; β3hI = CC[C@H](C)[C@H](N)CC(=O)O; Nle = CCCC[C@H](N)C(=O)O; Aib = CC(C)(N)C(=O)O

Target: T1, human PTH-1 receptor (Homo sapiens, UniProt Q03431)
T1 construct: expressed in transfected cells; host or cells: HEK-293
T1 sequence (Q03431 27-593): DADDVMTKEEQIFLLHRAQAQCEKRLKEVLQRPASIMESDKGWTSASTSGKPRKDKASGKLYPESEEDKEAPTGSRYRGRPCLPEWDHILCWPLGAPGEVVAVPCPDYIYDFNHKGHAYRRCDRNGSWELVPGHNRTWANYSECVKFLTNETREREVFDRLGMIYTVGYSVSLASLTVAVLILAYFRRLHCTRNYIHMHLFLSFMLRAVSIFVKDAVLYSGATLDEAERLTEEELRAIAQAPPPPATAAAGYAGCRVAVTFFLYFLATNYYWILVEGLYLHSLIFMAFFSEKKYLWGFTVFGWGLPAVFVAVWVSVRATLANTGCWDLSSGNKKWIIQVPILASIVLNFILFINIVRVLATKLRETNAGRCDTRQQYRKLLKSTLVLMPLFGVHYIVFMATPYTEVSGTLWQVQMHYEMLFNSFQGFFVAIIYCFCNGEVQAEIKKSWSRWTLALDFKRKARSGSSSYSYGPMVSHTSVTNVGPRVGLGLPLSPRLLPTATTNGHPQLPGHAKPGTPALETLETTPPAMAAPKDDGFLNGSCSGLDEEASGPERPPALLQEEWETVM
Assay: Reporter gene assay (CRE-luciferase) for agonist activity in transiently transfected HEK-293 cells
Assay type: cell-based
Details: for hPTHR-2/hPTHR-1: Table 3, ratio of EC50 values, selectivity for hPTH-1 receptor over hPTH-2 receptor
Procedure: Agonist activity of compounds on the human PTH-1 receptor was determined in a reporter gene assay by transiently transfecting HEK-293 cells with plasmids encoding human PTH-1 receptor under control of the SV40 promoter and a luciferase reporter gene under control of cAMP responsive elements (CRE). See Himmler et al, J. Recept. Res. 13 (1993) 79-94, for further guidance on this assay. Transfected cells were exposed to serial dilutions of compounds for 4-5 hours followed by lysis of cells, determination of luciferase activity, and determination of compound efficacies and EC50 values through non-linear regression.
PTH (1-34) was used as an internal control in each experiment and compounds were tested in at least three independent experiments. To determine selectivity, compounds were tested in luciferase-based transcriptional reporter gene assays expressing the human PTH-2 receptor.

Row | SMILES | hPTHR-2/hPTHR-1 | EC50 [nM]
1 | CCCC[C@H](NC(=O)[C@H](CC(C)C)NC(=O)[C@H](CCC(N)=O)NC(=O)[C@@H](NC(=O)[C@H](CCC(=O)O)NC(=O)[C@H](CO)NC(=O)[C@@H](NC(=O)[C@@H](N)CO)C(C)C)[C@@H](C)CC)C(=O)N[C@@H](Cc1c[nH]cn1)C(=O)N[C@@H](CC(N)=O)C(=O)N[C@@H](CC(C)C)C(=O)NCC(=O)N[C@@H](CCCCN)C(=O)N[C@@H](Cc1c[nH]cn1)C(=O)N[C@@H](CC(C)C)C(=O)N[C@@H](CCC(=O)O)C(=O)N[C@@H](CO)C(=O)N[C@H](CC(=O)N[C@@H](CCC(=O)O)C(=O)N[C@@H](CCCNC(=N)N)C(=O)N[C@H](C(=O)N[C@@H](CCC(=O)O)C(=O)N[C@@H](Cc1cccc2ccccc12)C(=O)N[C@@H](CC(C)C)C(=O)N[C@@H](CCCNC(=N)N)C(=O)N[C@@H](CCCCN)C(=O)N[C@@H](CC(C)C)C(=O)N[C@@H](CC(C)C)C(=O)N[C@@H](CCC(N)=O)C(=O)N[C@@H](CC(=O)O)C(=O)N[C@H](C(=O)N[C@@H](Cc1c[nH]cn1)C(=O)N[C@@H](CC(N)=O)C(=O)N[C@@H](Cc1ccccc1)C(N)=O)C(C)C)C(C)C)[C@@H](C)CC [SEQ ID NO: 21, [Nle^8, Glu^16, β-hIle^18,1-Nal^23, Leu^27] hPTH (1-34)-NH2] (H-SVSEIQL[Nle]HNLGKHLES[β3hI]ERVE[1Nal]LRKLLQDVHNF-NH2) | 234 | –
2 | CCCC[C@H](NC(=O)[C@H](CC(C)C)NC(=O)[C@H](CCC(N)=O)NC(=O)[C@@H](NC(=O)[C@H](CCC(=O)O)NC(=O)[C@H](CO)NC(=O)[C@@H](NC(=O)[C@@H](N)CO)C(C)C)[C@@H](C)CC)C(=O)N[C@@H](Cc1c[nH]cn1)C(=O)N[C@@H](CC(N)=O)C(=O)N[C@@H](CC(C)C)C(=O)NCC(=O)N[C@@H](CCCCN)C(=O)N[C@@H](Cc1c[nH]cn1)C(=O)N[C@@H](CC(C)C)C(=O)N[C@@H](CO)C(=O)N[C@@H](CO)C(=O)N[C@H](CC(=O)N[C@@H](CCC(=O)O)C(=O)N[C@@H](CCCNC(=N)N)C(=O)N[C@H](C(=O)N[C@@H](CCC(=O)O)C(=O)N[C@@H](Cc1cccc2ccccc12)C(=O)N[C@@H](CC(C)C)C(=O)N[C@@H](CCCNC(=N)N)C(=O)N[C@@H](CCCCN)C(=O)N[C@@H](CC(C)C)C(=O)N[C@@H](CC(C)C)C(=O)N[C@@H](CCC(N)=O)C(=O)N[C@@H](CC(=O)O)C(=O)N[C@H](C(=O)N[C@@H](Cc1c[nH]cn1)C(=O)N[C@@H](CC(N)=O)C(=O)N[C@@H](Cc1ccccc1)C(N)=O)C(C)C)C(C)C)[C@@H](C)CC [SEQ ID NO: 22, [Nle^8, Ser^16, β-hIle^18,1-Nal^23, Leu^27] hPTH (1-34)-NH2] (H-SVSEIQL[Nle]HNLGKHLSS[β3hI]ERVE[1Nal]LRKLLQDVHNF-NH2) | 101 | 0.19
3 | CCCC[C@H](NC(=O)[C@H](CC(C)C)NC(=O)[C@H](CCC(N)=O)NC(=O)[C@@H](NC(=O)[C@H](CCC(=O)O)NC(=O)[C@H](CO)NC(=O)[C@@H](NC(=O)[C@@H](N)CO)C(C)C)[C@@H](C)CC)C(=O)N[C@@H](Cc1c[nH]cn1)C(=O)N[C@@H](CC(N)=O)C(=O)N[C@@H](CC(C)C)C(=O)NCC(=O)N[C@@H](CCCCN)C(=O)N[C@@H](Cc1c[nH]cn1)C(=O)N[C@@H](CC(C)C)C(=O)N[C@@H](CC(N)=O)C(=O)N[C@@H](CO)C(=O)N[C@H](CC(=O)N[C@@H](CCC(=O)O)C(=O)N[C@@H](CCCNC(=N)N)C(=O)N[C@H](C(=O)N[C@@H](CCC(=O)O)C(=O)N[C@@H](Cc1cccc2ccccc12)C(=O)N[C@@H](CC(C)C)C(=O)N[C@@H](CCCNC(=N)N)C(=O)N[C@@H](CCCCN)C(=O)N[C@@H](CC(C)C)C(=O)N[C@@H](CC(C)C)C(=O)N[C@@H](CCC(N)=O)C(=O)N[C@@H](CO)C(=O)N[C@H](C(=O)N[C@@H](Cc1c[nH]cn1)C(=O)N[C@@H](CC(N)=O)C(=O)N[C@@H](Cc1ccccc1)C(N)=O)C(C)C)C(C)C)[C@@H](C)CC [SEQ ID NO: 26, [Nle^8, β-hIle^18,1-Nal^23, Leu^27, Ser^30] hPTH (1-34)-NH2] (H-SVSEIQL[Nle]HNLGKHLNS[β3hI]ERVE[1Nal]LRKLLQSVHNF-NH2) | 98 | 0.19
4 | CCCC[C@H](NC(=O)[C@H](CC(C)C)NC(=O)[C@H](CCC(N)=O)NC(=O)[C@@H](NC(=O)[C@H](CCC(=O)O)NC(=O)[C@H](CO)NC(=O)[C@@H](NC(=O)[C@@H](N)CO)C(C)C)[C@@H](C)CC)C(=O)N[C@@H](Cc1c[nH]cn1)C(=O)N[C@@H](CC(N)=O)C(=O)N[C@@H](CC(C)C)C(=O)NCC(=O)N[C@@H](CCCCN)C(=O)N[C@@H](Cc1c[nH]cn1)C(=O)N[C@@H](CC(C)C)C(=O)N[C@@H](CC(N)=O)C(=O)N[C@@H](CO)C(=O)N[C@H](CC(=O)N[C@@H](CCC(=O)O)C(=O)N[C@@H](CCCNC(=N)N)C(=O)N[C@H](C(=O)N[C@@H](CCC(=O)O)C(=O)N[C@@H](Cc1cccc2ccccc12)C(=O)N[C@@H](CC(C)C)C(=O)N[C@@H](CCCNC(=N)N)C(=O)N[C@@H](CCCCN)C(=O)N[C@@H](CC(C)C)C(=O)N[C@@H](CC(C)C)C(=O)N[C@@H](CCC(N)=O)C(=O)N[C@@H](CC(=O)O)C(=O)N[C@H](C(=O)N[C@@H](Cc1c[nH]cn1)C(=O)N[C@@H](CCC(=O)O)C(=O)N[C@@H](Cc1ccccc1)C(N)=O)C(C)C)C(C)C)[C@@H](C)CC [SEQ ID NO: 27, [Nle^8, β-hIle^18,1-Nal^23, Leu^27, Glu^33] hPTH (1-34)-NH2] (H-SVSEIQL[Nle]HNLGKHLNS[β3hI]ERVE[1Nal]LRKLLQDVHEF-NH2; N-terminus assumed) | 344 | 0.12
5 | CCCC[C@H](NC(=O)[C@H](CC(C)C)NC(=O)[C@H](CCC(N)=O)NC(=O)[C@@H](NC(=O)[C@H](CCC(=O)O)NC(=O)[C@H](CO)NC(=O)[C@@H](NC(=O)[C@@H](N)CO)C(C)C)[C@@H](C)CC)C(=O)N[C@@H](Cc1c[nH]cn1)C(=O)N[C@@H](CC(N)=O)C(=O)N[C@@H](CC(C)C)C(=O)NCC(=O)N[C@@H](CCCCN)C(=O)N[C@@H](Cc1c[nH]cn1)C(=O)N[C@@H](CC(C)C)C(=O)N[C@@H](CC(N)=O)C(=O)N[C@@H](CO)C(=O)N[C@H](CC(=O)N[C@@H](CCC(=O)O)C(=O)N[C@@H](CCCNC(=N)N)C(=O)N[C@H](C(=O)N[C@@H](CCC(=O)O)C(=O)N[C@@H](Cc1cccc2ccccc12)C(=O)N[C@@H](CC(C)C)C(=O)N[C@@H](CCCNC(=N)N)C(=O)N[C@@H](CCCCN)C(=O)N[C@@H](CC(C)C)C(=O)N[C@@H](CC(C)C)C(=O)N[C@@H](CCC(N)=O)C(=O)N[C@@H](CC(=O)O)C(=O)N[C@H](C(=O)N[C@@H](Cc1c[nH]cn1)C(=O)N[C@@H](CC(N)=O)C(=O)N[C@@H](CCC(=O)O)C(N)=O)C(C)C)C(C)C)[C@@H](C)CC [SEQ ID NO: 29, [Nle^8, β-hIle^18,1-Nal^23, Leu^27, Glu^34] hPTH (1-34)-NH2] (H-SVSEIQL[Nle]HNLGKHLNS[β3hI]ERVE[1Nal]LRKLLQDVHNE-NH2; N-terminus assumed) | 474 | 0.12
6 | CCCC[C@H](NC(=O)[C@H](CC(C)C)NC(=O)[C@H](CCC(N)=O)NC(=O)[C@@H](NC(=O)[C@H](CCC(=O)O)NC(=O)[C@H](CO)NC(=O)[C@@H](NC(=O)[C@@H](N)CO)C(C)C)[C@@H](C)CC)C(=O)N[C@@H](Cc1c[nH]cn1)C(=O)N[C@@H](CC(N)=O)C(=O)N[C@@H](CC(C)C)C(=O)NC(C)(C)C(=O)NC(C)(C)C(=O)N[C@@H](Cc1c[nH]cn1)C(=O)N[C@@H](CC(C)C)C(=O)N[C@@H](CC(N)=O)C(=O)N[C@@H](CO)C(=O)N[C@H](CC(=O)N[C@@H](CCC(=O)O)C(=O)N[C@@H](CCCNC(=N)N)C(=O)N[C@H](C(=O)N[C@@H](CCC(=O)O)C(=O)N[C@@H](Cc1cccc2ccccc12)C(=O)N[C@@H](CC(C)C)C(=O)N[C@@H](CCCNC(=N)N)C(=O)N[C@@H](CCCCN)C(=O)N[C@@H](CC(C)C)C(=O)N[C@@H](CC(C)C)C(=O)N[C@@H](CCC(N)=O)C(=O)N[C@@H](CC(=O)O)C(=O)N[C@H](C(=O)N[C@@H](Cc1c[nH]cn1)C(=O)N[C@@H](CC(N)=O)C(=O)N[C@@H](Cc1ccccc1)C(N)=O)C(C)C)C(C)C)[C@@H](C)CC [SEQ ID NO: 31, [Nle^8, Aib^12,13, β-hIle^18,1-Nal^23, Leu^27] hPTH (1-34)-NH2] (H-SVSEIQL[Nle]HNL[Aib][Aib]HLNS[β3hI]ERVE[1Nal]LRKLLQDVHNF-NH2; N-terminus assumed) | 138 | 0.25
